According to article PMC2826162 (Expert opinion on drug metabolism & toxicology, 2010):
Like-named read-outs stand apart in the source and are kept apart here.

Experiments:
[1] = target: T1, C334ACYP101 (Pseudomonas putida, UniProt P00183, C335A); test: biochemical; format: binding
[2] = target: T1, C334ACYP101; test: biochemical; format: binding; remark: listed apart in the source
[3] = test system: CYP101
[4] = test system: CYP73As; settings: cinnamate hydroxylation; cited from earlier work
[5] = target: T2, CYP2B4 (Oryctolagus cuniculus, UniProt P00178); settings: pH 7.4
T2 sequence (P00178 whole entry): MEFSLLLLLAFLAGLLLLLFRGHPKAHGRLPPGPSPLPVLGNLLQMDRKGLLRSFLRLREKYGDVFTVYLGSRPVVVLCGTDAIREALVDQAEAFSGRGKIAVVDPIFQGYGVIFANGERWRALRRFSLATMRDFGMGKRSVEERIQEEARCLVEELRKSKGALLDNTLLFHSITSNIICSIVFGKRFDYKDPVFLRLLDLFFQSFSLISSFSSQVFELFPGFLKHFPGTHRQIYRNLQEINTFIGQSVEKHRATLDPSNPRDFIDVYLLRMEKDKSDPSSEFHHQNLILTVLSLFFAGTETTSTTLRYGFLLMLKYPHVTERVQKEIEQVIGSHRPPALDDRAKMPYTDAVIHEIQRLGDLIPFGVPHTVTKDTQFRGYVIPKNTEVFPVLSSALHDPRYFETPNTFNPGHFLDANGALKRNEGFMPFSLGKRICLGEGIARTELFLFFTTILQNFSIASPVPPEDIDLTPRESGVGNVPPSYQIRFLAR

[6] = target: T2, CYP2B4
[7] = target: T2, CYP2B4; settings: cited from earlier work
[8] = test system: CYP2B4; settings: cited from earlier work
[9] = test system: CYPC21 (steroid C-21 hydroxylase of bovine adrenocortical microsomes); settings: low spin to five coordinated high spin; cited from earlier work
[10] = test system: CYP2C9; settings: cited from earlier work
[11] = test system: CYP2C9; settings: cited from earlier work; remark: listed apart in the source
[12] = test system: CYP3A4; settings: cited from earlier work
[13] = target: T1, C334ACYP101; format: binding; settings: for K4 apparent equilibrium constant: product (P) binding to ES; for K4 apparent equilibrium constant / K2 apparent equilibrium constant: pH 7.4, 24°C; for K2 apparent equilibrium constant: product binding to E; for K1K4: product of constants, ESP formed via ES

T1 sequence (P00183 whole entry C335A): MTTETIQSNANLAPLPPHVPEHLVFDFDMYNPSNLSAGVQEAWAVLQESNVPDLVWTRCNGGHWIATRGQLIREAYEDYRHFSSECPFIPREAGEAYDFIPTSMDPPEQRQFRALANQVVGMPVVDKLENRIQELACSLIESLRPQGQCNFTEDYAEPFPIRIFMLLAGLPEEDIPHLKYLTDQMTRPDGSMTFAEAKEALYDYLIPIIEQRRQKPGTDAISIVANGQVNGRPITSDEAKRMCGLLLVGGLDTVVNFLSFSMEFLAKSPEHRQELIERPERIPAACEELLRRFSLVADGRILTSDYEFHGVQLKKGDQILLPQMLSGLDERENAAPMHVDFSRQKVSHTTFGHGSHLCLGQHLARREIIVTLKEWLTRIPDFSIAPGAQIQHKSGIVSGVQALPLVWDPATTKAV

CC12CCC(CC1=O)C2(C)C (stereo not drawn) [Cam, Camphor]
Kd [1]: 4.8 ± 0.8 µM | Kd ([2]; KD^APP Kinetic): 6.2 ± 0.9 µM | Kd ([2]; KD^APP Transient): 5 ± 0.5 µM | peak to trough ratio of Type I difference spectrum [3]: ~0.87

O=C(O)/C=C/c1ccc(O)cc1 [coumerate]
product inhibition of substrate hydroxylation [4]: not observable

C[C@H](Cc1ccccc1)NCc1ccccc1 [DesBNZ, desmethylbenzphetamine]
Kd [5]: 701 ± 150 µM | binding of product formed in situ [6]: remains bound | time of Site II re-ligation to form the final Type II complex (slow phase) [7]: ≤ 20 milliseconds | strength of hetero atom binding to Site II (L6) [8]: as strongly as water

C[C@]12CCC(=O)C=C1CC[C@@H]1[C@@H]2CC[C@]2(C)C(=O)CC[C@@H]12 [androstenedione]
Type I spectral change [9]: elicited

Nc1ccc(S(=O)(=O)c2ccc(N)cc2)cc1 [dapsone]
effect on coupling efficiency of flurbiprofen hydroxylation [10]: enhanced | effect on flurbiprofen hydroxylation [10]: stimulating | Type I spectral change in the CYP2C9 ([11]; static spectroscopy): does not elicit

CC(C(=O)O)c1ccc(-c2ccccc2)c(F)c1 (stereo not drawn) [Flurbiprofen, flurbiprofen]
Type I spectral change in the CYP2C9 [11]: elicits

Nc1ccc(S(=O)(=O)c2ccc(NO)cc2)cc1 [N-hydroxydapsone]
effect on coupling efficiency of flurbiprofen hydroxylation [10]: enhanced | effect on flurbiprofen hydroxylation [10]: stimulating

C[C@]12CC[C@H]3[C@@H](CCC4=CC(=O)CC[C@@]43C)[C@@H]1CC[C@@H]2O [testosterone]
effect on metabolism of midazolum by CYP3A4 [12]: inhibits

O=C1C2CC3CC(C2)CC1C3 [2 Adone, 2-Adamantanone]
Kd [1]: 2.9 ± 0.2 µM | Kd ([2]; KD^APP Transient, C334ACYP101, 10-13°C jump, 0.05 M K-PO4 buffer + 0.1 M KCl): 6 ± 2 µM

COc1cc2c(c3oc(=O)c4c(c13)CCC4=O)[C@@H]1C=CO[C@@H]1O2 [aflatoxin B1]
effect on metabolism of α-NF by CYP3A4 [12]: has no effect

CC1(C)[C@H]2CC(=O)[C@]1(C)C[C@H]2O [5exo OH Camphor, 5-exo-OH camphor]
K4 apparent equilibrium constant ([13]; OHcam 38 uM): .012 ± .001 µM⁻¹ | K2 apparent equilibrium constant ([13]; OHcam 38 uM): .039 ± .002 µM⁻¹ | K1K4 ([13]; OHcam 38 uM): .0080 | K4 apparent equilibrium constant ([13]; OHcam 66 uM): .0078 ± .0005 µM⁻¹ | K2 apparent equilibrium constant ([13]; OHcam 66 uM): .030 ± .004 µM⁻¹ | K1K4 ([13]; OHcam 66 uM): .0049 | K4 apparent equilibrium constant ([13]; OHcam 100 uM): .0063 ± .0004 µM⁻¹ | K2 apparent equilibrium constant ([13]; OHcam 100 uM): .034 ± .002 µM⁻¹ | K1K4 ([13]; OHcam 100 uM): .0043 | K4 apparent equilibrium constant ([13]; OHcam 133 uM): .0039 ± .0003 µM⁻¹ | K2 apparent equilibrium constant ([13]; OHcam 133 uM): .034 ± .002 µM⁻¹ | K1K4 ([13]; OHcam 133 uM): .0024

O=c1cc(-c2ccccc2)oc2c1ccc1ccccc12 [α-NF, α-naphthoflavone]
effect on metabolism of aflatoxin B1 by CYP3A4 [12]: activates
